What was measured:
aldose reductase [1] = target: T1, aldose reductase (Bos taurus, UniProt P16116); assay: in vitro aldose reductase inhibition (modified Hayman and Kinoshita procedure, enzyme from bovine lens); assay type: biochemical; conditions: read-out: % Inhibition at Different Molar Concentrations (in vitro); for inhibition at 10 µM: 10^-5 molar; for inhibition at 1 µM: 10^-6 molar; for inhibition at 0.1 µM: 10^-7 molar
T1 construct: preparation of the enzyme from bovine lens; from tissue; host or cells: bovine lens
Description: In the present case the procedure of Hayman and Kinoshita is modified in that the final chromatography step is omitted in the preparation of the enzyme from bovine lens.
The following results were obtained when the compounds of this invention were evaluated in the above in vitro test.

aldose reductase [2] = conditions: literature report; cited from earlier work

| inhibition at 10 µM (aldose reductase [1]) [%] | inhibition at 1 µM (aldose reductase [1]) [%] | inhibition at 0.1 µM (aldose reductase [1]) [%] | Structure (SMILES) | inhibition of aldose reductase (in words) (aldose reductase [2]) |
| --- | --- | --- | --- | --- |
| 87 | 70 | 21 | CN(CC(=O)O)C(=S)c1ccc2c(Br)cccc2c1 [CH3 5-Br, N-[(5-bromo-2-naphthalenyl)thioxomethyl]-N-methylglycine] |  |
|  |  |  | O=C1NC(=O)[C@@]2(CCOc3ccc(F)cc32)N1 [sorbinil, (S)-6-Fluoro-2,3-dihydrospiro(4H-1-benzopyran-4,4'-imidazolidine)-2',5'-dione] | aldose reductase inhibiting properties |
|  |  |  | O=C(O)CN1C(=O)c2cccc3cccc(c23)C1=O [1,3-Dioxo-1H-benz[de]isoquinoline-2(3H)-acetic acid] | effective inhibitor of aldose reductase |
| 84 | 60 | 19 | CN(CC(=O)O)C(=S)c1ccc2cc(Br)ccc2c1 [CH3 6-Br, N-[(6-Bromo-2-naphthalenyl)thioxomethyl]-N-methylglycine] |  |
